Read-outs that look alike come from different tables or passages of the source.
How the values were obtained:
[1] = test system: xMCF-7/Palbo-R cells; test: xMCF-7/Palbo-R xenograft tumor model; type: in vivo; settings: oral tube feeding twice daily for 20 days, Balb/c nude female mice
Description: To establish a xenograft tumor model, 1×10^7 xMCF-7/Palbo-R cells were suspended in 0.2 mL of a mixture of Matrigel and […] (1:1) and injected subcutaneously into 6-8 week-old Balb/c nube female mice. Tumor growth was observed periodically, and the volume (volume=½×(length×width 2)) was measured with a vernier caliper. When the tumors grew to an average volume of 100˜150 mm3, the drug was administered to mice (12 days after inoculation) in random groups according to the tumor size and their body weights. […] The drugs were administered by oral tube feeding twice daily for 20 days. Tumor volume and animal weight were measured twice a week and continued until the end of the experiment. Dosing day was defined as day 0. Measurement time points were day 0, day 3, day 7, day 10, day 14, day 17 and day 20. All mice were euthanized by cervical dislocation. At the end of the experiment, tumors were collected and weighed to calculate TGI values (see Table 4).

[2] = test system: MCF-7-Palbo-R cells; test: MCF-7-Palbo-R cell antiproliferative assay (BrdU ELISA); type: cell-based; settings: for IC50: 72 hours, BrdU; for Bottom(%): bottom of inhibition curve; for Top(%): top of inhibition curve
Description: 1. Experimental Materials • MCF-7/palbo-R • EMEM medium (ATCC, 30-2003); DMEM/F12 medium (Gibco-1 1330-032) • Fetal bovine serum (cellmax-SA21 1.02) • DMSO (SIGMA, D2650) • BrdU ELISA cell proliferation assay kit (Roche, 11647229001) • ELISA (e.g. MD-SpectraMax ID5 or EnVision)
2. Experimental protocol • 1. Cell spreading • 1) Cells were counted, the concentration of cell suspension was adjusted • 2) The MCF7/Palbo-R cell suspension was seeded in 96-well plates at […] volume to make the number of cells per well is 4000-5000; • 3) Blank control group was added with 90 μl of culture medium; • 2. […] A 3-fold serial gradient dilution was performed with 0.1% DMSO medium for a total of 9 concentrations, and the concentrations of the compounds after dilution were as follows: • 10000 nM, 3333.33 nM, 1111.11 nM, 370.34 nM, 123.45 nM, 41.15 nM, 13.72 nM, 4.57 nM, and 1.52 nM. • b) After 72 hours of compound treatment. • 1) A 10 mM of Brdu stock solution was diluted with RPMI medium and added to a 96-well plate at 20 uL/well and shaken at 350 rpm for 10 minutes. • 2) The 96 well plate was placed back into the incubator for 1 or 2 hours. • 3) After the medium was removed from the 96-well plate, 200 ul/well of Fixation/Denaturation solution was added and incubated for 30 minutes at room temperature. • 4) The fixation solution was removed and 100 ul of peroxidase-coupled anti-Brdu antibody solution (antibody dilution prepared at 1:100 dilution) was added, • and incubated at 350 rpm for 1 hour at room temperature. • 6) The 96-well plate was washed three times with 300 ul/well of PBS. • 8) 100ul of peroxidase substrate solution was added and shaken at 350 rpm for about 10-20 minutes at room temperature, • until the DMSO-treated cell control wells turn a medium blue color. If a color is too dark, it will cause the absorbance value to out of the reading range. • 9) The reaction was terminated by the addition of 25 ul of 1 M sulfuric acid. Shake to ensure uniform color. • 10) The absorbance at 450 nm was recorded. • 3. Data analysis • The inhibition rate is calculated using the following equation:
IR (%)=(1−(RLU compound−RLU blank)/(RLU control−RLU blank))*100%.

[3] = test system: MV4-11 cells; test: MV4-11 xenograft tumor model; type: in vivo; settings: oral tube feeding twice a day for 15 days, NOD/SCID mice
Description: MV-4-11 cells were cultured in IMEM culture medium containing 10% fetal bovine serum. Cells in the exponential growth phase were collected, and the cells were resuspended in PBS to a suitable concentration for subcutaneous tumor inoculation in nude mice.
To establish a xenograft tumor model, 5×10^6 MV4-11 cells were suspended in 0.1 mL of a 1:1 mixture of PBS and Matrigel and injected subcutaneously into the right dorsal side of 6-8-week-old NOD/SCID mice. Tumor growth was observed periodically, and the volume (volume=½×(length×width^2)) was measured with a vernier caliper. When the tumors grew to an average volume of 100˜150 mm^3, the drug was administered to mice (12 days after inoculation) in random groups according to the tumor size and their body weights. […] Among them, the mice in the Vehicle, 10 mg/kg TY-3301, 10 mg/kg C3, and 20 mg/kg C3 groups were administered twice a day by oral tube feeding for 15 days, and the mice in the 20 mg/kg TY-3300 group were administered once a day by oral tube feeding for 15 days. Tumor volume and animal weight were measured twice a week and continued until the end of the experiment. Dosing day was defined as day 0. Measurement time points were day 0, day 3, day 7, day 10, day 14, and day 15. All mice were euthanized by cervical dislocation. At the end of the experiment, tumors were collected and weighed to calculate TGI values (see Table 6).

[4] = test system: OVCAR-3 cells; test: OVCAR-3 xenograft tumor model; type: in vivo; settings: 30 mg/kg, oral tube feeding twice daily for 21 days, BALB/c nude female mice
Description: OVCAR-3 cells were cultured in RPMI1640 culture medium containing 20% fetal bovine serum and 10 μg/mL Insalin. Cells in the exponential growth phase were collected, and the cells were resuspended in the mixed solution of PBS and Matrigel in a ratio of 1:1 to a suitable concentration for subcutaneous tumor inoculation in nude mice.
To establish a xenograft tumor model, 1×10^7 OVCAR-3 cells were suspended in 0.2 mL of a mixture of PBS and Matrigel (1:1) and injected subcutaneously into 6-8-week-old BALB/c nube female mice on the right back. Tumor growth was observed periodically, and the volume (volume=½[…](length×width 2)) was measured with a vernier caliper. When the tumors grew to an average volume of 100˜150 mm^3, the drug was administered to mice (27 days after inoculation) in random groups according to the tumor size and their body weights. […] Tumor volume and animal weight were measured twice a week and continued until the end of the experiment. Dosing day was defined as day 0. Measurement time points were day 0, day 3, day 7, day 10, day 14, day 17 and day 21. All mice were euthanized by cervical dislocation. At the end of the experiment, tumors were collected and weighed to calculate TGI values (see Table 5).

SMILES | TGI ([1]; 10 mg/kg) [%] | TGI ([1]; 20 mg/kg) [%] | IC50 ([2]; read-out: AbsIC50) [nM] | IC50 ([2]; read-out: ReIC50) [nM] | Bottom(%) [2] [%] | Top(%) [2] [%] | TGI ([3]; 10 mg/kg) [%] | TGI ([3]; 20 mg/kg) [%] | TGI [4] [%]
C[C@@]1(O)CCC[C@H]1n1c(=O)c(OC(F)F)cc2cnc(NC3CCN(S(C)(=O)=O)CC3)nc21 [Example 3] | 64.4 | 64.6 | 36 | 38 | 6.317 | 98.857 | 69.5 | 95.3 | 71.3
C[C@@]1(O)CCC[C@H]1n1c(=O)c(C(F)F)cc2cnc(NC3CCN(S(C)(=O)=O)CC3)nc21 [PF-06873600, reference compound] | 36.2 | – | 54 | 49 | 7.487 | 98.896 | 60.9 | – | 52.6
